Experimental data taken from article PMC13575467, “Structural and functional characterisation of a reconstructed ancestral strigolactone receptor” (The Plant Journal, 2026).

Assays:
AtD14 [1] = target: T1, AtD14 (Arabidopsis thaliana, UniProt Q9SQR3); assay: differential scanning fluorimetry; type: binding; conditions: Tm lowered (destabilisation); ligand 0-200 μM
T1 construct: gene D14; E. coli codon-optimised, 6xHis-SUMO fusion (pE-SUMO-Amp) from E. coli Rosetta, Ni-NTA, tag kept in assays
T1 sequence (Q9SQR3 1-267): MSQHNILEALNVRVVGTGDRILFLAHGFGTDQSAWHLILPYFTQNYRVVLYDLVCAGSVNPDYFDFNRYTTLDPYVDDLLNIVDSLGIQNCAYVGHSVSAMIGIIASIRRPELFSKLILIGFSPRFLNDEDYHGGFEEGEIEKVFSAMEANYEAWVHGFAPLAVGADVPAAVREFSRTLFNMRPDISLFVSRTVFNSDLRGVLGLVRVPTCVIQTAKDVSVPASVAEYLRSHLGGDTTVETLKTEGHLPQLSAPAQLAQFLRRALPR

ancD14 (ancestral D14) [2] = target: T2, ancD14 (ancestral D14) (synthetic construct, UniProt Z9A6V6BWX9); assay: differential scanning fluorimetry; type: binding; conditions: Tm lowered (destabilisation); ligand 0-200 μM
T2 sequence (Z9A6V6BWX9 1-265): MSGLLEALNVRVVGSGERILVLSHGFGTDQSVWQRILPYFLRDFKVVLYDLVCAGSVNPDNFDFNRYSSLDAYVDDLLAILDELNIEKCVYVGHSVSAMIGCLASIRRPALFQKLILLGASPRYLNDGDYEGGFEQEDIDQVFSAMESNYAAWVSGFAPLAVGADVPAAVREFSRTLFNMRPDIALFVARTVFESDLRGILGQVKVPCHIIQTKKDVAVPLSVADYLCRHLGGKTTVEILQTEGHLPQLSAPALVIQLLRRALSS

AtD14 [3] = target: T1, AtD14; assay: competition of dYLG hydrolysis; type: biochemical; conditions: 5 μM dYLG, 0-50 μM competitor, 100 ng protein
AtD14 [4] = target: T1, AtD14; assay: differential scanning fluorimetry; type: binding; conditions: Tm lowered (destabilisation); ligand 0-200 μM; remark: listed apart in the source
ancD14 (ancestral D14) [5] = target: T2, ancD14 (ancestral D14); assay: competition of dYLG hydrolysis; type: biochemical; conditions: 5 μM dYLG, 0-50 μM competitor, 100 ng protein
ancD14 (ancestral D14) [6] = target: T2, ancD14 (ancestral D14); assay: differential scanning fluorimetry; type: binding; conditions: Tm lowered (destabilisation); ligand 0-200 μM; remark: listed apart in the source

dTm (decrease in melting temperature) (AtD14 [1])	dTm (decrease in melting temperature) (ancD14 (ancestral D14) [2])	Compound	IC50 (AtD14 [3])	dTm (AtD14 [4])	IC50 (ancD14 (ancestral D14) [5])	dTm (ancD14 (ancestral D14) [6])
6.1 °C	6.6 °C	CC1=C[C@H](O/C=C2/C(=O)O[C@@H]3c4ccccc4C[C@H]23)OC1=O [GR24^5DS]	GR24^5DS was a very effective competitor for AtD14	–	–	–
–	–	CC1=C[C@@H](O/C=C2/C(=O)O[C@H]3c4ccccc4C[C@@H]23)OC1=O [GR24^ent-5DS]	AtD14 activity was inhibited by all four enantiomers	AtD14 was thermally destabilised by both GR24^5DS and GR24^ ent‐5DS	GR24^ ent‐5DS also competed well with ancD14	albeit with a comparatively muted response to GR24^ ent‐5DS
–	–	O=C1C=C[C@@H](O/C=C2/C(=O)O[C@H]3c4ccccc4C[C@@H]23)O1 [dGR24^ent-5DS]	AtD14 activity was inhibited by all four enantiomers	–	–	–
